Data from ChEMBL document CHEMBL1201862, “PubChem BioAssay data set” (2004).
Activity calls are given as the source filed them.

Tests used:
[1] = biological target: Nuclear receptor subfamily 5 group A member 2 (Homo sapiens, UniProt O00482); type: functional, cell-based;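 further: HEK293T cells transfected with LRH-1 and a StAR promoter luciferase reporter; potency for inhibitors that lower LRH-1 driven reporter light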
[2] = StAR promoter reporter inhibition counter-screen, dose response, counter-screen for LRH-1 inverse agonist project, cell-based, luminescence, luciferase reporter (AID 651969); type: functional
Steroidogenic factor 1 = Steroidogenic factor 1 (Homo sapiens, UniProt Q13285); assay: Counterscreen for inverse agonists of the liver receptor homolog-1 (LRH-1; NR5A2): Luminescence-based cell-based high throughput dose response assay to identify inverse agonists of the Steroidogenic Factor 1 Nuclear Receptor (SF1; NR5A1).; type: functional
Steroidogenic factor 1, sequence (Q13285 whole entry): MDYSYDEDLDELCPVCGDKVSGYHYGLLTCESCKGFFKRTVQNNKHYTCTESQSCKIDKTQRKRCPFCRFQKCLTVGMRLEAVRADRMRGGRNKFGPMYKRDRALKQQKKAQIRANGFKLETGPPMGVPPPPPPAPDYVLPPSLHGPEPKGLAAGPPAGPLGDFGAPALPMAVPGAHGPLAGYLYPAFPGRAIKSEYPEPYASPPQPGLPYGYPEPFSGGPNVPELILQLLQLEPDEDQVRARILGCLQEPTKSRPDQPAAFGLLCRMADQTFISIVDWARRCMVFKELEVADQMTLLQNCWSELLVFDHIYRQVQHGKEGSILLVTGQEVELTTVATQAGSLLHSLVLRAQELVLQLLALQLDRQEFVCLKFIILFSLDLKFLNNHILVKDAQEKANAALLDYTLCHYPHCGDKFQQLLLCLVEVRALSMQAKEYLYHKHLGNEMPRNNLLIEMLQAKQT

[3] = cytotoxicity toward NIH3T3 fibroblasts, dose response, counter-screen, cell-based, ATP luminescence, mouse fibroblasts (AID 2010); type: functional;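 further: cells exposed to compound for about 90 hours before reading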
[4] = inhibitors of intracellular T. cruzi replication, confirmation, NIH3T3 host cells, beta-gal luminescence (AID 2044); type: functional, cell-based;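 further: intracellular parasites grown in NIH/3T3 mouse fibroblasts as host cells; luminescent beta-galactosidase reporter signal from transgenic T. cruzi replicating inside host cells; inhibitors lower the luminescence signal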
[5] = biological target: T1, Probable nicotinate-nucleotide adenylyltransferase (Staphylococcus aureus (strain N315), UniProt P65502); type: functional, Staphylococcus aureus subsp. aureus N315;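 on IC50 Mean: confirmatory dose-response retesting of NadD inhibitor hits first found in an ultra-high-throughput screen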
T1 sequence (P65502 whole entry): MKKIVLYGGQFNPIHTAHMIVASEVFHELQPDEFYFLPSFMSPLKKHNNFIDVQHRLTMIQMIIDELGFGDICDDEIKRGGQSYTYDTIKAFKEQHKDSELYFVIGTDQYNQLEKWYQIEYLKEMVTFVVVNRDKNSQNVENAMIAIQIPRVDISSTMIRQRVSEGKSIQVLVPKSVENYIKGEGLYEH

[6] = biological target: T1, Probable nicotinate-nucleotide adenylyltransferase; type: functional, Staphylococcus aureus subsp. aureus N315; conditions: read-out: IC50_Mean
[7] = biological target: T2, Low molecular weight phosphotyrosine protein phosphatase (Homo sapiens, UniProt P24666); type: functional; conditions: read-out: IC50_Mean
T2 sequence (P24666 whole entry): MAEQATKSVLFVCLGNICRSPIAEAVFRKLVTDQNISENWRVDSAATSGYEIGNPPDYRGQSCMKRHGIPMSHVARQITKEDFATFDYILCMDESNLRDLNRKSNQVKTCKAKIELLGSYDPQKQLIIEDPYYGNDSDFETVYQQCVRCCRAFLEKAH

[8] = biological target: T2, Low molecular weight phosphotyrosine protein phosphatase; type: functional; conditions: read-out: IC50_Mean; remark: listed apart in the source
A549 = assay: A549 cell toxicity, dose response, cytotoxicity control, plate reader, cherry-pick samples (AID 687028); type: functional, cell-based; conditions: Homo sapiens
Beta-lactamase [9] = biological target: Beta-lactamase (Salmonella choleraesuis (strain SC-B67), UniProt Q5J463); assay: Epi-absorbance-based counterscreen for selective VIM-2 inhibitors: dose response biochemical high throughput screening assay to identify inhibitors of TEM-1 serine-beta-lactamase.
Beta-lactamase (Salmonella choleraesuis (strain SC-B67), UniProt Q5J463), sequence (Q5J463 whole entry): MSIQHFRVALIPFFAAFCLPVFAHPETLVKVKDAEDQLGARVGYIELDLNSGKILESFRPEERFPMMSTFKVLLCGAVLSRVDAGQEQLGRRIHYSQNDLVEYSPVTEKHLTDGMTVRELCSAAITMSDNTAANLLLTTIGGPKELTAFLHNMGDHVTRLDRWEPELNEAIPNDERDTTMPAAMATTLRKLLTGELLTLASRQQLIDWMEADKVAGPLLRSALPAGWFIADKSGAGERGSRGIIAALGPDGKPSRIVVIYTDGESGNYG

Beta Lactamase [10] = biological target: T3, Beta Lactamase (Pseudomonas aeruginosa, UniProt Q932Y6); assay: VIM-2 metallo-beta-lactamase inhibitor potency, dose response, biochemical, epi-absorbance readout, selective inhibitors (AID 1919)
T3 sequence (Q932Y6 whole entry): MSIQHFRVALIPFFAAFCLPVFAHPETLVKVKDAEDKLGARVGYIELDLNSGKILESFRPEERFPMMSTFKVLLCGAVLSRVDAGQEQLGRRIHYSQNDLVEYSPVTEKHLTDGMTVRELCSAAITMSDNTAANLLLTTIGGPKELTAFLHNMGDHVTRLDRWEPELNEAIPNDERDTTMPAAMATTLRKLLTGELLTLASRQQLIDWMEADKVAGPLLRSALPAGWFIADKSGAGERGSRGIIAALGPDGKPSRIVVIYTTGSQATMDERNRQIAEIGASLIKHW

Beta-lactamase [11] = biological target: T4, Beta-lactamase (Pseudomonas aeruginosa, UniProt Q79MP6); assay: […] counterscreen for selective VIM-2 inhibitors: dose response biochemical high throughput screening assay to identify inhibitors of IMP-1 metallo-beta-lactamase.
T4 sequence (Q79MP6 whole entry): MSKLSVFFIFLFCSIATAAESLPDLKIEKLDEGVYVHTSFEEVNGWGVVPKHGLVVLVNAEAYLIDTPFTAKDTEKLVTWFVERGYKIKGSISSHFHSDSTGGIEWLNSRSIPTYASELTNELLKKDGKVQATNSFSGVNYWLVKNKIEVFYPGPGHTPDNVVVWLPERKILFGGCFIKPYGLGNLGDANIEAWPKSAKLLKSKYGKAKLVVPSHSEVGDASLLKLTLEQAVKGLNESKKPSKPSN

Beta-lactamase [12] = biological target: T4, Beta-lactamase; assay: IMP-1 metallo-beta-lactamase inhibitors, dose response, selectivity assay for VIM-2 inhibitor project, biochemical, epi-absorbance (AID 1920)
Beta Lactamase [13] = biological target: T3, Beta Lactamase; assay: VIM-2 inhibitor FRET-based artefact check, dose response, artefact control for selective VIM-2 inhibitor project, biochemical, FRET readout, CCF2 substrate (AID 1926)
Galanin receptor type 3 = Galanin receptor type 3 (Homo sapiens, UniProt O60755); assay: Fluorescence-based cell-based primary high throughput dose response assay to identify antagonists of the Galanin Receptor 3 (GalR3).; type: functional
Galanin receptor type 3, sequence (O60755 whole entry): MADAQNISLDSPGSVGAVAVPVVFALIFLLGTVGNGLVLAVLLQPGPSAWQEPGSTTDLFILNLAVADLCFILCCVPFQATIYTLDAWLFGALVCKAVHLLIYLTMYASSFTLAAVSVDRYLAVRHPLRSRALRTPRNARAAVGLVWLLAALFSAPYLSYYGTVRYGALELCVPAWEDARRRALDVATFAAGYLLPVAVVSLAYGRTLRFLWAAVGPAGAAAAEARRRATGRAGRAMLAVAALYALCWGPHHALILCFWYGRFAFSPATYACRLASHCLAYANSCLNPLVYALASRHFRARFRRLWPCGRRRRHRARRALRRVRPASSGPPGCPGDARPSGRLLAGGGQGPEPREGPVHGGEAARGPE

cells = type: functional, cell-based; conditions: HEK-CNG
Albumin = Albumin (Bos taurus, UniProt P02769); assay: Counterscreen for inhibitors of T-cell receptor (TCR)-CD3 interaction: Fluorescence-based biochemical high throughput dose response assay to identify inhibitors of T-cell receptor (TCR)-CD3 interaction using a TAMRA-labeled BSA probe.; type: functional
Albumin, sequence (P02769 whole entry): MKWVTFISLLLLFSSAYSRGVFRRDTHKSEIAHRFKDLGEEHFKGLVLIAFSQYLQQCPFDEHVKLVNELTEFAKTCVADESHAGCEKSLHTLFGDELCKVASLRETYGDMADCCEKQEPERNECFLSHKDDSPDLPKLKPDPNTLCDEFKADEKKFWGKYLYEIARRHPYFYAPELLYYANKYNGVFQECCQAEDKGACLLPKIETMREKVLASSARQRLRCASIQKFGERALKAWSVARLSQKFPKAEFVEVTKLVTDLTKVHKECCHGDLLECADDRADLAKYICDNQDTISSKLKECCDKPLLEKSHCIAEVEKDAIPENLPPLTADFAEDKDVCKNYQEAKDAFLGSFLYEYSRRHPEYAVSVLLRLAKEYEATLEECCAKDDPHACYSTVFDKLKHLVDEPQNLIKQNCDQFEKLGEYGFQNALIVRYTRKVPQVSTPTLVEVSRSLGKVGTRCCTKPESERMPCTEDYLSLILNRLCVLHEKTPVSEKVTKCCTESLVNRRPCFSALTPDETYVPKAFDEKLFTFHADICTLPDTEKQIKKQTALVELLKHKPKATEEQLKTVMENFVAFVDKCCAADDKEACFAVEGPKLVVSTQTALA

[14] = NIH/3T3 fibroblast cytotoxicity, dose response, cytotoxicity control for T. cruzi growth inhibitor project, cell-based, cherry-pick samples, set 2 (AID 651817); type: functional; conditions: NIH3T3
[15] = Shn3 3'UTR reporter inhibitors, dose response, cell-based, Clone20 osteoblasts, firefly luciferase, cherry-picked (AID 624132); type: functional;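 further: firefly luciferase luminescence from reporter carrying the Shn3 3'UTR in osteoblasts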
[16] = biological target: T5, Ubiquitin-conjugating enzyme E2 N (Homo sapiens, UniProt P61088); type: functional
T5 sequence (P61088 whole entry): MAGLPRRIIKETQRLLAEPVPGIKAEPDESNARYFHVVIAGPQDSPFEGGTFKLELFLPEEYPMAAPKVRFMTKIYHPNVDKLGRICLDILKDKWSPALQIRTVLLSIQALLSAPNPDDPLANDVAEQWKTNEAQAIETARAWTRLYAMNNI

[17] = biological target: T5, Ubiquitin-conjugating enzyme E2 N; type: functional; remark: listed apart in the source
CHO = assay: cytotoxicity in TLR9-MyD88 CHO cells, dose response, cytotoxicity control for TLR9-MyD88 binding inhibitor project, cell-based, luminescence (AID 588339); type: functional, hamster; conditions: Cricetulus griseus;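 further: CHO cells stably coexpressing TLR9 and MyD88 fusions from primary screen; compound exposure lasted 48 hours before viability readout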
[18] = control 3'UTR Renilla luciferase suppression, dose response, counter-screen for Shn3 inhibitor project, cell-based, Clone20-Shn3RL, cherry-picked (AID 624133); type: functional
Bcl-2-related protein A1 = biological target: T6, Bcl-2-related protein A1 (Mus musculus, UniProt Q07440); type: functional;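 further: confirmatory dose–response counterscreen on Bfl-1, used to check hits from a UBC13 polyubiquitin inhibitor campaign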
T6 sequence (Q07440 whole entry): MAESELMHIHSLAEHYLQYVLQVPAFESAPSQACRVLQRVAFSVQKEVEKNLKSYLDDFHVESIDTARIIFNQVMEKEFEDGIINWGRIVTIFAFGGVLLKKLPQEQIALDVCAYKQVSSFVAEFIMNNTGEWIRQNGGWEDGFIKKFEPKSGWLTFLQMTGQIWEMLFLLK

Protein RecA = biological target: T7, Protein RecA (Mycobacterium tuberculosis, UniProt P9WHJ3); assay: Fluorescence Cell-Free Homogeneous Dose Retest to Identify Inhibitors of RecA-Intein Splicing Activity. [Related pubchem assays (depositor defined):AID2097, AID2223, AID489010, AID492950]; type: functional
T7 sequence (P9WHJ3 whole entry): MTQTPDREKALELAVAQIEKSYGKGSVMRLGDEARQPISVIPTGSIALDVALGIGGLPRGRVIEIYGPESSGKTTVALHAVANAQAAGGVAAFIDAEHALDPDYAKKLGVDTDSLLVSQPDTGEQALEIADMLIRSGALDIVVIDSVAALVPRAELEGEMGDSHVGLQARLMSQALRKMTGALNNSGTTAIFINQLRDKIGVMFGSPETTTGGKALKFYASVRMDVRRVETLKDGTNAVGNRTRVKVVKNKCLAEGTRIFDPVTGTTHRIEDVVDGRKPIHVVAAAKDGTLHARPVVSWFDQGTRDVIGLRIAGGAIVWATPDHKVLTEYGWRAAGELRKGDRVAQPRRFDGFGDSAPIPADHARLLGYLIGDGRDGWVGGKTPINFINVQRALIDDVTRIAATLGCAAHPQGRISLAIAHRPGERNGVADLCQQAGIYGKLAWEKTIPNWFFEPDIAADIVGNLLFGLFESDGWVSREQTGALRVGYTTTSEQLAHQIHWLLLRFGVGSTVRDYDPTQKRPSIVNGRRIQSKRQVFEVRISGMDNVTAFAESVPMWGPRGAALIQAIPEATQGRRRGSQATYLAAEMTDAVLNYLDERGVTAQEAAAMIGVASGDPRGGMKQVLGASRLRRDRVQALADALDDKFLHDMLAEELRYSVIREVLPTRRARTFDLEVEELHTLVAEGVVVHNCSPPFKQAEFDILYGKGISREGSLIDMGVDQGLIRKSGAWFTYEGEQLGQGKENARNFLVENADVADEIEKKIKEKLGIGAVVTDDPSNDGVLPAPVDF

[19] = Luminescence Cell-Based Dose Retest to Confirm Inhibitors of Cancer Stem Cells. [Related pubchem assays (depositor defined):AID2717, AID2721]; type: functional; conditions: Homo sapiens
[20] = HepG2 cell cytotoxicity, dose response, cytotoxicity control for Shn3 inhibitor project, CellTiter-Glo, cherry-picked (AID 624134); type: functional, cell-based
[21] = biological target: ATP-binding cassette sub-family B member 6 (Homo sapiens, UniProt Q9NP58); assay: ABCB6 transporter inhibitors, porphyrin accumulation, dose response, flow cytometry, K562-ABCB6 cells, cherry pick 02 (AID 624487); type: functional; conditions: read-out: EC50_MICROM
ATP-binding cassette sub-family B member 6, sequence (Q9NP58 whole entry): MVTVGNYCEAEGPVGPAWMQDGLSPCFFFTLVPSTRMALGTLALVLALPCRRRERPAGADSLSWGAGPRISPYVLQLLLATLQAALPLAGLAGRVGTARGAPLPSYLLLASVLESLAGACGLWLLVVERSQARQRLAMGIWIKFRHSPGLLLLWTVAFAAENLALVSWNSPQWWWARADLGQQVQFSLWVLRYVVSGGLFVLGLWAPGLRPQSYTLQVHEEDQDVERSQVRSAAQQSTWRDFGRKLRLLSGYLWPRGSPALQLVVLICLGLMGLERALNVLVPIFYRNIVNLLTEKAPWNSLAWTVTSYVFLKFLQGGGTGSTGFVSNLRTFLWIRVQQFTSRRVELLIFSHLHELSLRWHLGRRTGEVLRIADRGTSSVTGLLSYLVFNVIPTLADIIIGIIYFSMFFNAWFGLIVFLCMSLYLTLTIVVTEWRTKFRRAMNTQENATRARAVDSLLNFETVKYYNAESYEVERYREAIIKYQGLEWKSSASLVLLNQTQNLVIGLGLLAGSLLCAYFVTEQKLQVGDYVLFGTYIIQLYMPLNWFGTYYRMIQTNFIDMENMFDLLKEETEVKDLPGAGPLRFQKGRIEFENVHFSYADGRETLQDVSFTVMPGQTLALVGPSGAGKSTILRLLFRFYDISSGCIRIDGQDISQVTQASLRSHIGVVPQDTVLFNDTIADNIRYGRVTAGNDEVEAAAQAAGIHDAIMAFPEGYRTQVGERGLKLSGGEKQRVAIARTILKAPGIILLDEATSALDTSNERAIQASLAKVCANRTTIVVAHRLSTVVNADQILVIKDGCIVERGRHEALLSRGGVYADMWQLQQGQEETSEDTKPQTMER

[22] = biological target: T8, Replicative DNA helicase DnaB (Mycobacterium tuberculosis, UniProt P9WMR3); assay: DnaB intein splicing inhibitors, dose response, biochemical, cell-free fluorescence (AID 449749); type: functional
T8 sequence (P9WMR3 whole entry): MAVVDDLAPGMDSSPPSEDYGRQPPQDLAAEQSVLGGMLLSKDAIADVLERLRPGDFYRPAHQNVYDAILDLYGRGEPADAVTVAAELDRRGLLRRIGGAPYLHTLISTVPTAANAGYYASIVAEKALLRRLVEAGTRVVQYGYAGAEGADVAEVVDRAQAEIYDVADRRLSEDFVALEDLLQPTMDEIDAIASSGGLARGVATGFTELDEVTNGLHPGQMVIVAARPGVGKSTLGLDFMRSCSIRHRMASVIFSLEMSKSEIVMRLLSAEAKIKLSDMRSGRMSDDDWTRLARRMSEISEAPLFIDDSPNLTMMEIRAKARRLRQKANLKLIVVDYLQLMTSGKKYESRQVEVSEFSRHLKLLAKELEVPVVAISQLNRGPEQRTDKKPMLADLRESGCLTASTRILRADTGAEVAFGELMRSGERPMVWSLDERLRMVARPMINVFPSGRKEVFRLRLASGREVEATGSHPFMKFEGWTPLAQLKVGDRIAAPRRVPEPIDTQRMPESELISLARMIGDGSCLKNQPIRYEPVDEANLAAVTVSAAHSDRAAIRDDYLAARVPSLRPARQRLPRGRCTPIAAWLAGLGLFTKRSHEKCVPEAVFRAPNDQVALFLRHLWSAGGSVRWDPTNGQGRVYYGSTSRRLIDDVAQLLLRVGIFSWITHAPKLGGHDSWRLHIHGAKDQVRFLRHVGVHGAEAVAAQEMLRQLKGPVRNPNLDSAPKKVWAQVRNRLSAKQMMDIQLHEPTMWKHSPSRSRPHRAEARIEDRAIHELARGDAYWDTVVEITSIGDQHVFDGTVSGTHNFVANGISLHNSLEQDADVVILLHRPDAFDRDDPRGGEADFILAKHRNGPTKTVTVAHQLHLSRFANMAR

Beta Lactamase [23] = biological target: T3, Beta Lactamase; assay: beta-lactamase reporter inhibitor potency, dose response, artefact control for TLR9-MyD88 binding inhibitor project, BLA reporter cells, FRET fluorescence (AID 588341); type: cell-based;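 further: cell based assay in CHO-K1 cells stably expressing beta-lactamase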
[24] = Counterscreen for activators of the function of SWI/SNF related, matrix associated, actin dependent regulator of chromatin, subfamily a, member 2 (SMARCA2, BRM): Luminescence-based cell-based high throughput dose response assay to identify non-selective compounds using the VP16 reporter assay.; type: functional
[25] = inhibitors of PGC1a acetylation in cells, dose response, cell-based, cherry-picked samples (AID 720514); type: functional;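 further: potency may reflect raised or lowered acetylation signal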
[26] = biological target: SWI/SNF-related matrix-associated actin-dependent regulator of chromatin subfamily A member 2 (Homo sapiens, UniProt P51531); assay: Luminescence-based cell-based high throughput dose response assay to identify activators of the function of SWI/SNF related, matrix associated, actin dependent regulator of chromatin, subfamily a, member 2 (SMARCA2, BRM).; type: functional

Nuclear receptor subfamily 5 group A member 2, sequence (O00482 whole entry): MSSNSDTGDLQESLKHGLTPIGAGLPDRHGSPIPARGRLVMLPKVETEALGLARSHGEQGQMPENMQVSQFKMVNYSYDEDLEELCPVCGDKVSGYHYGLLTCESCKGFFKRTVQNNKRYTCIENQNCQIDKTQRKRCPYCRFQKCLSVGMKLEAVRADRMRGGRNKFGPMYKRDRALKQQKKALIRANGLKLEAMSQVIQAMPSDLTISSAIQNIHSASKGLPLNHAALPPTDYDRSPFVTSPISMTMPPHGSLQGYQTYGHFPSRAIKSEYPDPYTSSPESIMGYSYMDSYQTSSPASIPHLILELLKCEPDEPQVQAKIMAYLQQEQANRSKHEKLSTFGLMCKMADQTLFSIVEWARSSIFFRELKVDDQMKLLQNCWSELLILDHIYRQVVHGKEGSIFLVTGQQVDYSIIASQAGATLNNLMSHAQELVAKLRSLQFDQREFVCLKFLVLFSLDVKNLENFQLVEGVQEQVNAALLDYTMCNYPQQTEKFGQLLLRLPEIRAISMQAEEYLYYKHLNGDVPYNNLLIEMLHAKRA

## CC(=O)Nc1ccc(NC(=O)COC(=O)Cc2c[nH]c3ccccc23)cc1
[1]
  IC50: 2.64 µM (active)
[2]
  IC50: 35.9 µM (inactive)
Steroidogenic factor 1
  IC50: 2.07 µM (active)

## COc1ccc(-c2cc(C(=O)Nc3cccc(S(=O)(=O)NCc4ccco4)c3)c3ccccc3n2)cc1OC
[3]
  EC50: > 60 µM (not active)
[4]
  EC50: 1.64 µM (active)
[5]
  IC50: 13.8 µM (active)
[6]
  IC50: 25.3 µM (active)

## O=C1C(=Cc2cn(-c3ccccc3)nc2-c2ccc(OCc3ccc(Cl)cc3)cc2)SC(=S)N1CCS(=O)(=O)O
[7]
  IC50: 7.21 µM (active)
[8]
  IC50: 1.35 µM (active)

## C[C@@H]1CCCCO[C@@H](CN(C)C(=O)Cc2ccccc2)[C@H](C)CN([C@H](C)CO)C(=O)c2cc(NS(=O)(=O)c3ccc(Cl)cc3)ccc2O1
A549
  AC50: 31.2 µM (active)

## O=C(C1=C(O)C(=O)N(Cc2cccnc2)C1c1ccccn1)c1ccc(F)cc1 (stereo unspecified)
Beta-lactamase [9]
  IC50: > 59.6 µM (inactive)
Beta Lactamase [10]
  IC50: 2.42 µM (active)
Beta-lactamase [11]
  IC50: > 59.6 µM (inactive)
Beta-lactamase [12]
  IC50: > 59.6 µM (inactive)
Beta Lactamase [13]
  IC50: 0.941 µM (active)

## CC(CC(=O)Nc1ccc(Cl)c(S(=O)(=O)N2CCOCC2)c1)c1ccccc1 (stereo unspecified)
Galanin receptor type 3
  IC50: 1.21 µM (active)
cells
  EC50: > 29.9 µM (inactive)

## CCc1ccc(NC(=O)NNC(=O)c2ccc3ccccc3c2O)cc1
Albumin
  IC50: > 94.1 µM (inactive)

## C[C@@H]1CN([C@H](C)CO)C(=O)Cc2cc(NS(=O)(=O)c3ccc(Cl)cc3)ccc2O[C@H]1CN(C)S(=O)(=O)c1ccc(Cl)cc1
[14]
  AC50: 16.9 µM (active)

## CC(=O)Nc1ccc(NC(=O)c2nc(S(=O)(=O)Cc3cccc(C)c3)ncc2Cl)cc1
[15]
  AC50: 0.528 µM (active)
[16]
  IC50: 13 µM (active)
[17]
  IC50: > 20 µM (inactive)
CHO
  IC50: 3.54 µM (active)
[18]
  AC50: 6.53 µM (active)
Bcl-2-related protein A1
  IC50: > 20 µM (inactive)
Protein RecA
  EC50: 5.24 µM (active)
[19]
  AC50: 2.47 µM (active)
[20]
  AC50: 66.6 µM (active)
[21]
  EC50: 17.8 µM (active)
[22]
  AC50: 7.54 µM (active)
Beta Lactamase [23]
  IC50: 9.43 µM (active)

## Cc1cc(C)cc(OC(=O)C[S+]([O-])c2ccc(C(F)(F)F)cc2[N+](=O)[O-])c1 (stereo unspecified)
[24]
  EC50: > 91.2 µM (inactive)
[25]
  AC50: 10.3 µM (active)
Protein RecA
  EC50: 1.3 µM (active)
[26]
  EC50: > 91.2 µM (inactive)
[22]
  AC50: 4.03 µM (active)
